# Patent US8476272B2, “Pharmaceutical composition for treatment of type 2 diabetes” (Jiangsu Hengrui Medicine Co., Ltd., priority 2010, dated 2013)
# Experiments:
# [1] = tested on: genetic fatty Wistar rats with diabetes; assay: 14-day administration to genetic fatty Wistar rats with diabetes: plasma glucose and hemoglobin; format: in vivo; settings: 14 days, compound A or MK-0431 10 mg/kg/day p.o., metformin 100 mg/kg/day, mean ± SD, n=5-6; for hemoglobin: hemoglobin Al
# Procedure: 14-19 week-old male Wistar rats were divided into 5 groups, 5-6 each group. […] Blood was collected from caudal vein. The plasma glucose and hemoglobin Al were determined respectively with a commercial kit (NC-ROPET, Nippon Chemiphar CO.) by enzyme method.
# [2] = tested on: genetic fatty Wistar rats with diabetes; assay: Oral glucose loading test in genetic fatty Wistar rats with diabetes after 7 days of administration; format: in vivo; settings: phosphates 30 mg/kg/day p.o., metformin 100 mg/kg/day, mean ± SD, n=5
# Procedure: 13-14 week-old male Wistar rats were divided into 5 groups, 5 each group. […] Oral glucosieloading test was conducted immediately after fasting overnight (2 g glucose/kg/5 ml, p.o.). Blood was collected from caudal vein before or 120 minutes and 240 minutes after the test, and plasma glucose was analyzed with enzyme method (Encore Chemical System; Baker).
# [3] = 0 min (before glucose load 2 g/kg p.o.)
# [4] = 120 min after glucose load 2 g/kg p.o.
# [5] = 240 min after glucose load 2 g/kg p.o.
SMILES,plasma glucose [1],hemoglobin [1],"plasma glucose [2, 3]","plasma glucose [2, 4]","plasma glucose [2, 5]"
"COC(=O)c1nc(C(F)(F)F)n2c1CN(C(=O)C[C@H](N)Cc1cc(F)c(F)cc1F)CC2 [Compound A, (R)-7-[3-amino-4-(2,4,5-trifluoro-phenyl)-butyryl]-3-trifluoromethyl-5,6,7,8-tetrahydro-imidazo[1,5-a]pyrazine-1-carboxylic acid methyl ester]",214 ± 50,5.3 ± 0.3,–,–,–
COC(=O)c1nc(C(F)(F)F)n2c1CN(C(=O)C[C@H](N)Cc1cc(F)c(F)cc1F)CC2 [phosphate of compound A],–,–,103 ± 11 mg/dL,137 ± 17 mg/dL,102 ± 9 mg/dL
CN(C)C(=N)N=C(N)N [metformin],327 ± 46,6.1 ± 0.6,119 ± 11 mg/dL,221 ± 62 mg/dL,107 ± 21 mg/dL
